{"source": "patent US20150362482A1", "about": "(priority 2013, published 2015)", "assay_type_in_all_cases": "cell-based, mouse", "key": {"networked ESN cultures": {"system": "networked ESN cultures"}, "ESNs": {"system": "ESNs"}, "iGluR": {"system": "iGluR"}, "GABARA": {"system": "GABARA"}}, "data": [{"smiles": "Nc1ccncc1N", "note": "[3,4-DAP, 3,4-diaminopyridine]", "values": [{"measurement": "network behaviour in simultaneous dual intracellular recordings", "setting": "networked ESN cultures", "value": "rapid transition to a synchronized bursting behavior"}]}, {"smiles": "NCCCC(=O)O", "note": "[GABA]", "values": [{"measurement": "effect on spontaneous network activity", "setting": "networked ESN cultures", "value": "silenced spontaneous network activity"}]}, {"smiles": "NC1=N[C@H](O)[C@H]2[C@H]3O[C@]4(O)O[C@@H]([C@@H](O)[C@@]2(N1)[C@@H]4O)[C@]3(O)CO", "note": "[TTX, tetrodotoxin]", "values": [{"measurement": "excitatory post-synaptic currents", "setting": "ESNs", "value": "blocked"}]}, {"smiles": "N[C@@H](CCC(=O)O)C(=O)O", "note": "[glutamate]", "values": [{"measurement": "agonist-induced current", "setting": "iGluR", "value": "multiphasic inward current"}]}, {"smiles": "NCc1cc(=O)[nH]o1", "note": "[muscimol]", "values": [{"measurement": "agonist-induced current", "setting": "GABARA", "value": "large desensitizing Cl-current"}]}]}
